Reference: publication PMC6004562, “Discovery of Orally Bioavailable, Quinoline-Based Aldehyde Dehydrogenase 1A1 (ALDH1A1) Inhibitors with Potent Cellular Activity” (Journal of Medicinal Chemistry, 2018)
Read-outs that look alike come from different tables or passages of the source.

How the values were obtained:
[1] = pharmacokinetics in CD-1 mice; assay type: in vivo; details: male, plasma, CD-1 mouse; for Vd: read-out: Vss; for bioavailability: po 10 mg/kg vs iv 2 mg/kg
[2] = pilot toxicity / tolerability study in CD-1 mice; details: po 50 mg/kg, QD*5, 5 days observation
[3] = mouse, in vivo, po, 50 mg/kg
[4] = Figure 1, previously reported; cited from earlier work
[5] = Figure 1, previously reported; cited from earlier work; remark: listed apart in the source
[6] = iv 2 mg/kg, observed at t = 5 min

| Compound | AUC(0-inf) ([1]; iv 2 mg/kg) [ng·h/mL] | Cmax [1, 6] [ng/mL] | Vd ([1]; iv 2 mg/kg) [L/kg] | AUC(0-inf) ([1]; po 10 mg/kg) [ng·h/mL] | Cmax ([1]; po 10 mg/kg) [ng/mL] | bioavailability [1] [%] | tolerability [2] | tolerability [3] | solubility [4] [µg/mL] | RLM [5] [min] |
| --- | --- | --- | --- | --- | --- | --- | --- | --- | --- | --- |
| CS(=O)(=O)N1CCN(C(=O)c2cnc3ccc(Cl)cc3c2N2CCC(C#N)(c3ccccc3)CC2)CC1 [Compound 109] | 459 | 1100 | 1.39 | 720 | 471 | 31 |  |  |  |  |
| CN(C)C(=O)N1CCN(C(=O)c2cnc3ccc(F)cc3c2N2CCC(C#N)(c3ccccc3)CC2)CC1 [Compound 108] | 661 | 1800 | 0.72 | 844 | 1110 | 30 |  |  |  |  |
| CS(=O)(=O)N1CCN(C(=O)c2cnc3ccc(F)cc3c2N2CCC(C#N)(c3ccccc3)CC2)CC1 [Compound 86, 1-(6-Fluoro-3-(4-(methylsulfonyl)piperazine-1-carbonyl)quinolin-4-yl)-4-phenylpiperidine-4-carbonitrile] |  |  |  |  |  |  | no significant weight loss or abnormal clinical signs and no mortality was observed |  |  |  |
| CS(=O)(=O)N1CCN(C(=O)c2cnc3ccc(F)cc3c2-c2ccc(C3(C#N)CC3)cc2)CC1 [Compound 91, 1-(4-(6-Fluoro-3-(4-(methylsulfonyl)piperazine-1-carbonyl)quinolin-4-yl)phenyl)cyclopropanecarbonitrile] |  |  |  |  |  |  |  | no significant weight loss or abnormal clinical signs and no mortality was observed |  |  |
| N#CC1(c2ccccc2)CCN(c2c(C(=O)N3CCN(C(=O)C4CC4)CC3)cnc3ccc(F)cc23)CC1 [Compound 78] | 505 | 1500 | 1.2 | 227 | 215 | 9 |  |  |  |  |
| CS(=O)(=O)N1CCN(C(=O)c2cnc3ccc(Cl)cc3c2-c2ccc(C3(C#N)CC3)cc2)CC1 [Compound 119] | 1130 |  | 1.14 | 2760 | 1470 | 49 |  |  |  |  |
| CC(C)CCn1c(CN2CCN(C(=O)C3CC3)CC2)nc2c1c(=O)n(C)c(=O)n2C [Compound 4] |  |  |  |  |  |  |  |  | > 62 | > 30 |
| CN(C)C(=O)N1CCN(C(=O)c2cnc3ccc(F)cc3c2-c2ccc(C3(C#N)CC3)cc2)CC1 [Compound 118] | 1410 | 1960 | 2.2 | 2140 | 1170 | 30 |  |  |  |  |
